The text below walks through data of US9815788B2, “Anti-angiogenic compounds” (University College Dublin National University of Ireland, …, priority 2012, dated 2017).

The subject of assay [1] is zebrafish hyaloid vasculature. The assay can be described thus: Quantification of primary hyaloid vasculature branch number in Tg(fli1:EGFP) zebrafish. In kind it is in vivo. The note with it: for inhibition of developmental angiogenesis of the hyaloid vasculature (number of primary hyaloid vessels): typically 10 μM or 5 μM, from 24 hpf, vs DMSO control; for dose-dependent inhibition of development of hyaloid vessels: decreasing doses 20, 10, 7.5, 5, 2.5, 1 and/or 0.5 μM. As for the experimental part: (§1) All experiments were carried out under ethical approval granted by the UCD animal research ethics committee. Tg(fli1:EGFP) zebrafish were maintained according to standard procedures on a 14 hr light/10 hr dark cycle at 28° C. Embryos were obtained by natural spawning and developmental stages established by time and morphological criteria. […] Larvae were euthanised, and fixed in 4% PFA at 4° C. overnight before analysis.
Overall patterning of the vasculature (fin, gut and intersegmental vessels) was examined for abnormalities. Right lenses were dissected from the larvae and transferred to depression slides for observation under epi-fluorescence in the Olympus SZX16. Patterning of the hyaloid vessels on the treated larval lenses was compared to DMSO controls and the archetypal pattern previously described (Alvarez et al., 2007; Alvarez et al., 2009).
as §1, with “analysis. Lenses were dissected from the larvae and transferred to depression slides for observation under epi-fluorescence in the Olympus SZX16. Patterning of the hyaloid vessels on the treated larval lenses was compared to DMSO controls and the archetypal pattern previously described (Alvarez et al., 2007; Alvarez et al., 2009).” for “analysis.”

The subject of assay [2] is zebrafish intersegmental vessels. As to the kind of experiment: Quantification of intersegmental vessel number in zebrafish. In kind it is in vivo. The procedure:
[…] Larvae were manually dechorionated, euthanised, and fixed in 4% PFA at 4° C. overnight before analysis. The larvae were then washed with PBS and transferred to depression slides for observation under epi-fluorescence in an Olympus SZX16 fluorescent microscope. The number of intersegmental vessels was counted and the average number was graphed for each drug.
Larvae were manually dechorionated, euthanised, and fixed in 4% PFA at 4° C. overnight before analysis. The larvae were then washed with PBS and transferred to depression slides for observation under epi-fluorescence in an Olympus SZX16 fluorescent microscope. The number of intersegmental vessels was counted and the average number was graphed for each drug.

As for `CCN1CCc2cc(OC)c(OC)cc2C1c1ccc2c(c1)OCO2` (racemic) [Compound 11F-CC10, (rac)-1-Benzo[1,3]dioxol-5-yl-6,7-dimethoxy-2-ethyl-1,2,3,4-tetrahydro-isoquinoline], the “inhibition of developmental angiogenesis of the hyaloid vasculature (number of primary hyaloid vessels)” value (“inhibition … (number of primary hyaloid vessels)” below) in assay [1] was “inhibit developmental angiogenesis of the zebrafish hyaloid vasculature in a statistically significant manner”.
For `COc1ccc(Br)cc1C=Cc1ccc2ccccc2n1` [Compound 11B-074, 2-[2-(5-bromo-2-methoxyphenyl)vinyl]quinoline], the “inhibition … (number of primary hyaloid vessels)” value in assay [1] is on record as “inhibit developmental angiogenesis of the zebrafish hyaloid vasculature in a statistically significant manner”.
Turning to `COc1ccc(I)cc1C=Cc1ccc2ccccc2n1` [Compound 11B-412, 2-[2-(5-iodo-2-methoxyphenyl)vinyl]quinoline], the “inhibition of developmental angiogenesis of intersegmental vessels (number of intersegmental vessels)” value (from here on “inhibition … (number of intersegmental vessels)”) in assay [2] (10 μM, from 6 hpf) is “inhibit developmental angiogenesis of zebrafish intersegmental vessels in a statistically significant manner”.
Regarding `Cc1cccc(/C=C/c2ccc3cccc(O)c3n2)c1O` [Compound 11B-438, 2-[(E)-2-(2-Hydroxy-3-methylphenyl)vinyl]-8-quinolinol], in assay [1], the “inhibition … (number of primary hyaloid vessels)” value was “inhibit developmental angiogenesis of the zebrafish hyaloid vasculature in a statistically significant manner”. For the same compound, the “inhibition … (number of intersegmental vessels)” value in assay [2] (10 μM, from 6 hpf) is on record as “inhibit developmental angiogenesis of zebrafish intersegmental vessels in a statistically significant manner”.
Regarding `Oc1ccccc1/C=C/c1cc(O)c2ccccc2n1` [Compound 11B-470, 2-[(E)-2-(2-Hydroxyphenyl)vinyl]-4-quinolinol], the “inhibition … (number of intersegmental vessels)” value in assay [2] (10 μM, from 6 hpf) is listed as “inhibit developmental angiogenesis of zebrafish intersegmental vessels in a statistically significant manner”.
Turning to `Oc1cccc2ccc(C=Cc3ccccc3Cl)nc12` [Compound 11B-736, 2-[2-(2-chlorophenyl)vinyl]-8-quinolinol], in assay [2] (10 μM, from 6 hpf), the “inhibition … (number of intersegmental vessels)” value is given as “inhibit developmental angiogenesis of zebrafish intersegmental vessels in a statistically significant manner”.
Take `CCOc1ccccc1C=Cc1ccc2cccc(O)c2n1` [Compound 11B-739, 2-[2-(2-ethoxyphenyl)vinyl]-8-quinolinol]: the “inhibition … (number of primary hyaloid vessels)” value in assay [1] is on record as “inhibit developmental angiogenesis of the zebrafish hyaloid vasculature in a statistically significant manner”.
With `Cc1ccc2nc(/C=C/c3cccc(O)c3)ccc2c1` [Compound 11B-814, 3-[(E)-2-(6-Methyl-2-quinolinyl)vinyl]phenol], in assay [1], the “dose-dependent inhibition of development of hyaloid vessels” value (from here on “dose-dependent inhibition”) is recorded as “dose-dependent effect” and the “inhibition … (number of primary hyaloid vessels)” value was “inhibit developmental angiogenesis of the zebrafish hyaloid vasculature in a statistically significant manner”.
For `Oc1cccc(C=Cc2ccc3ccccc3n2)c1` [Compound 11B_CC2, 3-(2-Quinolin-2-yl-vinyl)-phenol], in assay [1], the “inhibition … (number of primary hyaloid vessels)” value is “inhibit developmental angiogenesis of the zebrafish hyaloid vasculature in a statistically significant manner”. In addition, in assay [2] (10 μM, from 6 hpf), the “inhibition … (number of intersegmental vessels)” value is “inhibit developmental angiogenesis of zebrafish intersegmental vessels in a statistically significant manner”.
Consider `Cl.Oc1cccc(C=Cc2ccc3ccccc3n2)c1` [Compound 11B_CC2_HCl, 3-(2-Quinolin-2-yl-vinyl)-phenol HCl salt], for which the “inhibition … (number of primary hyaloid vessels)” value in assay [1] is given as “inhibit developmental angiogenesis of the zebrafish hyaloid vasculature in a statistically significant manner”. The “inhibition … (number of intersegmental vessels)” value in assay [2] (10 μM, from 6 hpf) is reported as “inhibit developmental angiogenesis of zebrafish intersegmental vessels in a statistically significant manner”.
For the compound `Cl.Oc1ccc(C=Cc2ccc3ccccc3n2)cc1` [Compound 11B_CC3_HCl, 4-(2-Quinolin-2-yl-vinyl)-phenol HCl salt], the “inhibition … (number of intersegmental vessels)” value in assay [2] (10 μM, from 6 hpf) is listed as “inhibit developmental angiogenesis of zebrafish intersegmental vessels in a statistically significant manner”.
Regarding `Cl.Oc1ccccc1CCc1ccc2ccccc2n1` [Compound 11B_CC4_HCl, 2-(2-Quinolin-2-yl-ethyl)-phenol HCl salt], the “dose-dependent inhibition” value in assay [1] (HCl salt) is reported as “inhibit developmental angiogenesis of zebrafish hyaloid vasculature in a dose-dependent statistically significant manner”; in assay [1] (listed as 11B-CC4 HCl, HCl salt), “dose-dependent effect”. The “inhibition … (number of primary hyaloid vessels)” value in assay [1] is “inhibit developmental angiogenesis of the zebrafish hyaloid vasculature in a statistically significant manner”. Moreover, in assay [2] (10 μM, from 6 hpf), the “inhibition … (number of intersegmental vessels)” value is “inhibit developmental angiogenesis of zebrafish intersegmental vessels in a statistically significant manner”.
Regarding `Oc1cccc(CCc2ccc3ccccc3n2)c1` [Compound 11B_CC5, 3-(2-Quinolin-2-yl-ethyl)-phenol], the “inhibition … (number of primary hyaloid vessels)” value in assay [1] is on record as “inhibit developmental angiogenesis of the zebrafish hyaloid vasculature in a statistically significant manner”.
For `Cl.Oc1cccc(CCc2ccc3ccccc3n2)c1` [Compound 11B_CC5_HCl, 3-(2-Quinolin-2-yl-ethyl)-phenol HCl salt], the “dose-dependent inhibition” value in assay [1] (HCl salt) was “inhibit developmental angiogenesis of zebrafish hyaloid vasculature in a dose-dependent statistically significant manner”; in assay [1] (listed as 11B-CC5 HCl, HCl salt), “dose-dependent effect”. Also, the “inhibition … (number of primary hyaloid vessels)” value in assay [1] is “inhibit developmental angiogenesis of the zebrafish hyaloid vasculature in a statistically significant manner”. The “inhibition … (number of intersegmental vessels)” value in assay [2] (10 μM, from 6 hpf) was “inhibit developmental angiogenesis of zebrafish intersegmental vessels in a statistically significant manner”.
Turning to `C/C(=C\c1ccccc1O)c1ccc2ccccc2n1` [Compound 11B_CC11, (E)-2-(2-Quinolin-2-yl-propenyl)-phenol], in assay [1], the “inhibition … (number of primary hyaloid vessels)” value is listed as “inhibit developmental angiogenesis of the zebrafish hyaloid vasculature in a statistically significant manner”. In addition, in assay [2] (10 μM, from 6 hpf), the “inhibition … (number of intersegmental vessels)” value is on record as “inhibit developmental angiogenesis of zebrafish intersegmental vessels in a statistically significant manner”.
For `Oc1ccc(O)c(/C=C/c2ccc3ccccc3n2)c1` [Compound 11B_CC12, (E)-2-(2-Quinolin-2-yl-vinyl)--benzene-1,4-diol], in assay [2] (11B_CC12 tested at 2.5 μM, n=2), the “inhibition … (number of intersegmental vessels)” value is listed as “inhibit developmental angiogenesis of zebrafish intersegmental vessels in a statistically significant manner”.
Turning to `Oc1cccc(C#Cc2ccc3ccccc3n2)c1` [Compound 11B_CC15, 3-Quinolin-2-yl-ylethynyl-phenol], in assay [2] (10 μM, from 6 hpf), the “inhibition … (number of intersegmental vessels)” value is recorded as “inhibit developmental angiogenesis of zebrafish intersegmental vessels in a statistically significant manner”.
For `Cl.Oc1cccc(C#Cc2ccc3ccccc3n2)c1` [Compound 11B_CC15_HCl, 3-Quinolin-2-yl-ylethynyl-phenol HCl salt], in assay [2] (10 μM, from 6 hpf), the “inhibition … (number of intersegmental vessels)” value was “inhibit developmental angiogenesis of zebrafish intersegmental vessels in a statistically significant manner”.
Turning to `CCOc1cc2c(cc1OCC)C(c1cc3c(cc1Br)OCO3)NCC2` (centres unmarked) [Compound 11F-001, 1-(6-bromo-1,3-benzodioxol-5-yl)-6,7-diethoxy-1,2,3,4-tetrahydroisoquinoline], in assay [1], the “inhibition … (number of primary hyaloid vessels)” value is “inhibit developmental angiogenesis of the zebrafish hyaloid vasculature in a statistically significant manner”.
Turning to `COc1cc(CN2CCc3ccccc3C2)cc2c1OCO2` [Compound 11F-708, 2-[(7-methoxy-1,3-benzodioxol-5-yl)methyl]-1,2,3,4-tetrahydroisoquinoline], in assay [1], the “inhibition … (number of primary hyaloid vessels)” value is reported as “inhibit developmental angiogenesis of the zebrafish hyaloid vasculature in a statistically significant manner”.
Turning to `Oc1ccc(-c2ccc3c(c2)OCO3)cc1CN1CCc2ccccc2C1` [Compound 11F-978, 4-(1,3-benzodioxol-5-yl)-2-(3,4-dihydro-2(1H)-isoquinolinylmethyl)phenol], the “inhibition … (number of primary hyaloid vessels)” value in assay [1] is recorded as “inhibit developmental angiogenesis of the zebrafish hyaloid vasculature in a statistically significant manner”.
